Data published in article PMC9841533, “Microtubule-Stabilizing 1,2,4-Triazolo[1,5-a]pyrimidines as Candidate Therapeutics for Neurodegenerative Disease: Matched Molecular Pair Analyses and Computational Studies Reveal New Structure–Activity Insights” (Journal of Medicinal Chemistry, 2022).
Structures can show the parent of a compound that is named as a salt. Where two headings read alike, the source gives them in different places.

Assays:
[1] = tested on: acetylated α-tubulin (AcTub) levels in QBI293 cells; parameters: method as in PMID 26980057, PMID 33411523; settings: cited from earlier work; for Class (cellular phenotype): activity reported in previous studies
[2] = tested on: acetylated α-tubulin (AcTub) levels in QBI293 cells; assay: QBI293 cell assay of MT stabilization: acetylated α-tubulin ELISA; assay type: cell-based
Experimental: (§1) All test compounds were initially screened in the same cell-based (QBI293) assay of MT stabilization used in our previous SAR studies[11],[12] so as to allow direct comparison with literature data. Changes in levels of acetylated α-tubulin (AcTub) and total α-tubulin (α-Tub), relative to vehicle-treated negative control cells, were determined after 4 h of incubation with test compounds at 1 and 10 μM. To account for possible day-to-day differences in the responsiveness of cells to MT-stabilizing treatment, compound-dependent changes in AcTub levels relative to DMSO-treated cells were also normalized to the corresponding changes caused by 100 nM of 5 that was used as a positive control. In addition, docking studies, binding free energy calculations, and in selected cases, molecular dynamic simulations were conducted using an X-ray structure of the vinca and seventh sites (PDB: 5NJH,[10]7CLD[13]). […] For selected compounds, additional studies included testing in the QBI293 cell AcTub assay at additional compound concentrations, and/or evaluation of test compounds for their ability to prevent MT collapse in primary neuron cultures treated with the phosphatase inhibitor, okadaic […] (OA). Finally, cytotoxicity studies in QBI293 and HeLa cells were also conducted for representative examples (Supporting Information).
(§2) Compound-induced changes in acetylated-tubulin and α-tubulin in QBI293 cells or primary mouse or rat neurons were as previously described.[11],[12] […] The plated cells were incubated overnight, after which the medium was aspirated and fresh medium containing vehicle (0.25–0.3% DMSO) or test compound was added. Test compounds were prepared as 4–20 mM stock solutions in 100% DMSO, and these were diluted in culture medium prior to addition to the QBI293 cells. After 4 h incubation, whole-cell extracts were prepared from the QBI293 cells as described[11] and the supernatant fraction from each sample was assessed for protein content by bicinchoninic acid (BCA) assay. The amount of acetyl-tubulin (AcTub) and α-tubulin (αTub) within the cell extract samples was quantified using specific enzyme-linked immunosorbent assays (ELISA), as previously described.[11] Acetyl-tubulin levels were determined in a similar manner in rat or mouse cortical neuron cultures in which embryonic dissociated cortical neurons were plated at 3 × 10^5 cells/well in poly-D-lysine-coated 12-well plates, essentially as previously described.[11] […] Culture homogenates were prepared for the determination of AcTub levels by ELISA as previously described.[11]

[3] = tested on: total α-tubulin (α-Tub) levels in QBI293 cells; assay: QBI293 cell assay: total α-tubulin ELISA; assay type: cell-based
Experimental: as §1, §2

[4] = tested on: total α-tubulin (α-Tub) levels in QBI293 cells; parameters: method as in PMID 26980057, PMID 33411523; settings: 4 h incubation, reported in previous studies, cited from earlier work
[5] = Resazurin cell viability assay, HeLa; assay type: cell-based; settings: human, HeLa cells, three biological replicates, read-out: HeLa CC50 ± SD
Experimental: (§3) Cell Culture. QBI293 and HeLa cells were cultured in DMEM supplemented with 10% heat-
(§4) inactivated FBS and 1% penicillin-streptomycin. Cells were grown in T175 cell culture flasks maintained
(§5) at 37 ℃ in 5% CO2 and sub-c ultured when at 60-8 0% cell confluence.
(§6) Resazurin Cell Viability Assay. Cytotoxicity in QBI293 and HeLa cells was measured using the
(§7) resazurin cell viability assay.1 Test compounds were serially diluted in DMSO and added to 96-well
(§8) polystyrene assay plates to give final assay concentrations ranging from 100 nM to 4000 nM (1 µL; 1%
(§9) total DMSO). Fresh medium was added to the assay plate (49 µL/well). QBI293 or HeLa cells were
(§10) cells/well. Assay plates were incubated at 37 °C and 5% CO2 for 48 h, followed by addition of 20 µL 0.5
(§11) mM resazurin (Alfa Aesar, Cat. B21187) in PBS to each well. Assay plates were incubated in the dark for
(§12) (1 picture or pasted object on this page, not shown here)
(§13) 4 h at 37 °C. Fluorescence was measured at 531 nm and 595 nm excitation and emission wavelengths,
(§14) respectively, using a 2104 EnVision® multilabel plate reader. The viability of each well was normalized to
(§15) positive and negative controls in each assay plate. Dose-response curves were generated and CC50 values
(§16) calculated with GraphPad Prism, version 9.3 (San Diego, CA) using a sigmoidal four parameter logistic
(§17) curve. The means ± standard deviations from three biological replicates are shown.
(§18) (1) O'Brien, J.; Wilson, I.; Orton, T.; Pognan, F. Investigation of the Alamar Blue (resazurin) fluorescent
(§19) dye for the assessment of mammalian cell cytotoxicity. Eur. J. Biochem. 2000, 267 (17), 5421-5426.

[6] = Resazurin cell viability assay, QBI293; assay type: cell-based; settings: human, QBI293 cells, three biological replicates, read-out: QBI293 CC50 ± SD
Experimental: as §3, §4, §5, §6, §7, §8, §9, §10, §11, §12, §13, §14, §15, §16, §17, §18, §19

[7] = 4 h, 1 uM compound, read-out: AcTub (1uM)
[8] = 4 h, 10 uM compound, read-out: AcTub (10 uM)
[9] = 4 h, 1 uM compound, read-out: AlfaTub (1uM)
[10] = 4 h, 10 uM compound, read-out: AlfaTub (10 uM)
[11] = 4 h incubation, reported in previous studies
[12] = 4 h incubation, 10 μM, reported in previous studies

Compound | Class (cellular phenotype) [1] | AcTub (1 uM - normalized) ([2]; 1 uM compound) | AcTub (10 uM - normalized) ([2]; 10 uM compound) | fold induction at 1 µM [2, 7] | fold induction at 10 µM [2, 8] | fold induction at 1 µM [3, 9] | fold induction at 10 µM [3, 10] | α-Tub 1 μM, fold-change compared to vehicle (DMSO)-treated cells [4] [fold-change] | also measured
CC(C)[C@@H](C)Nc1c(-c2c(F)cc(F)cc2F)c(Cl)nc2ncnn12 [Compound 1] | I | – | – | – | – | – | – | – | –
CC(C)[C@H](C)Nc1c(-c2c(F)cc(F)cc2F)c(Cl)nc2ncnn12 [Compound 7] | I | – | – | – | – | – | – | – | –
CC(C)[C@@H](Nc1c(-c2c(F)cc(F)cc2F)c(Cl)nc2ncnn12)C(F)(F)F [Compound 8] | – | 0.16 | 0.73 | 2.79 | 13 | 1.1 | 0.61 | 1.10 ± 0.09 | AcTub 1 μM, fold-change compared to vehicle (DMSO)-treated cells [1, 11]: 2.79 ± 0.04 fold-change; AcTub 10 μM, fold-change compared to vehicle (DMSO)-treated cells [1, 12]: 13.0 ± 0.54 fold-change
CC(C)[C@H](Nc1c(-c2c(F)cc(F)cc2F)c(Cl)nc2ncnn12)C(F)(F)F [Compound 9] | I | 0.17 | 0.38 | 3.12 | 6.78 | 1.04 | 1.06 | 1.04 ± 0.01 | –
C[C@@H](Nc1c(-c2c(F)cc(F)cc2F)c(Cl)nc2ncnn12)C(C)(C)C [Compound 10] | I | – | – | – | – | – | – | – | –
CC(C)(C)CNc1c(-c2c(F)cc(F)cc2F)c(Cl)nc2ncnn12 [Compound 11] | I | 0.30 | 0.71 | – | – | – | – | 1.03 ± 0.07 | AcTub (1uM) ([2]; 1 uM compound): 2.04; AcTub (10 uM) ([2]; 10 uM compound): 4.79; AlfaTub (1uM) ([3]; 1 uM compound): 1.03; AlfaTub (10 uM) ([3]; 10 uM compound): 1.06; AcTub 1 μM, fold-change compared to positive control compound 5 (100 nM) (in parentheses) [1, 11]: 0.30 fold-change; AcTub 1 μM, fold-change compared to vehicle (DMSO)-treated cells [1, 11]: 2.04 ± 0.11 fold-change; AcTub 10 μM, fold-change compared to vehicle (DMSO)-treated cells [1, 12]: 4.79 ± 0.74 fold-change
C[C@H](Nc1c(-c2c(F)cc(F)cc2F)c(Cl)nc2ncnn12)C(C)(C)C [Compound 12] | I | – | – | – | – | – | – | – | –
CNCC#Cc1cc(F)c(-c2c(Cl)nc3ncnn3c2N[C@H](C)C(C)(C)C)c(F)c1 [Compound 59, (R)-5-Chloro-6-(2,6-difluoro-4-(3-(methylamino)prop-1-yn-1-yl)phenyl)-N-(3,3-dimethylbutan-2-yl)-[1,2,4]triazolo[1,5-a]pyrimidin-7-amine Hydrochloride] | – | 0.81 | 1.16 | 6.03 | 8.67 | 0.93 | 1 | – | AcTub 1 μM, fold-change compared to positive control compound 5 (100 nM) (in parentheses) ([2]; 4 h incubation, 1 μM): 0.81 fold-change; fold induction at 1 µM ([2]; 4 h incubation, 1 μM, read-out: AcTub 1 μM, fold-change compared to vehicle (DMSO)-treated cells): 6.03 ± 0.64; AcTub 10 μM, fold-change compared to positive control compound 5 (100 nM) (in parentheses) ([2]; 4 h incubation, 10 μM): 1.16 fold-change; fold induction at 10 µM ([2]; 4 h incubation, 10 μM, read-out: AcTub 10 μM, fold-change compared to vehicle (DMSO)-treated cells): 8.67 ± 0.16; fold induction at 1 µM ([3]; 4 h incubation, 1 μM, read-out: α-Tub 1 μM, fold-change compared to vehicle (DMSO)-treated cells): 0.93 ± 0.02; fold induction at 10 µM ([3]; 4 h incubation, 10 μM, read-out: α-Tub 10 μM, fold-change compared to vehicle (DMSO)-treated cells): 1 ± 0.03
CC1(CNc2c(-c3c(F)cc(F)cc3F)c(Cl)nc3ncnn23)N=N1 [Compound 61] | I | 0.12 | 0.27 | 1.56 | 3.42 | 1.08 | 1.03 | 1.08 ± 0.04 | α-Tub 10 μM, fold-change compared to vehicle (DMSO)-treated cells [4]: 1.03 ± 0.04 fold-change; AcTub 1 μM, fold-change compared to positive control compound 5 (100 nM) (in parentheses) [1, 11]: 0.12 fold-change
C[C@H](Nc1c(-c2c(F)cc(F)cc2F)c(Cl)nc2ncnn12)C1(C)N=N1 [Compound 62] | I | 0.13 | 0.28 | 0.84 | 1.85 | 1.07 | 0.94 | – | α-Tub 10 μM, fold-change compared to vehicle (DMSO)-treated cells [4]: 0.94 ± 0.02 fold-change; AcTub 10 μM, fold-change compared to vehicle (DMSO)-treated cells [1, 12]: 1.85 ± 0.08 fold-change
C[C@@H](Nc1c(-c2c(F)cc(F)cc2F)c(Cl)nc2ncnn12)C1(C)N=N1 [Compound 63] | I | 0.11 | 0.36 | 1.42 | 4.28 | 0.92 | 0.89 | – | AcTub 1 μM, fold-change compared to vehicle (DMSO)-treated cells [1, 11]: 1.42 ± 0.08 fold-change
CN(C)CCCOc1cc(F)c(-c2c(Cl)nc3ncnn3c2NCC2(C)N=N2)c(F)c1 [Compound 65] | – | 0.81 | 0.02 | 10.5 | 0.29 | 0.36 | 0.19 | – | α-Tub 10 μM, fold-change compared to vehicle (DMSO)-treated cells [4]: 0.19 ± 0.02 fold-change; AcTub 1 μM, fold-change compared to positive control compound 5 (100 nM) (in parentheses) [1, 11]: 0.81 fold-change; AcTub 1 μM, fold-change compared to vehicle (DMSO)-treated cells [1, 11]: 10.5 ± 0.4 fold-change; AcTub 10 μM, fold-change compared to positive control compound 5 (100 nM) (in parentheses) [1, 12]: 0.02 fold-change
C[C@@H](Nc1c(-c2c(F)cc(OCCCN(C)C)cc2F)c(Cl)nc2ncnn12)C1(C)N=N1 [Compound 66] | – | 1.68 | 0.07 | 21.7 | 0.93 | 0.73 | 1.01 | – | α-Tub 10 μM, fold-change compared to vehicle (DMSO)-treated cells [4]: 1.01 ± 0.05 fold-change
C[C@H](Nc1c(-c2c(F)cc(OCCCN(C)C)cc2F)c(Cl)nc2ncnn12)C1(C)N=N1 [Compound 67] | – | 1.01 | 0.04 | 6.7 | 0.28 | 0.69 | 0.78 | 0.69 ± 0.05 | AcTub 10 μM, fold-change compared to vehicle (DMSO)-treated cells [1, 12]: 0.28 ± 0.03 fold-change
CC(=O)O[C@H]1C(=O)[C@@]2(C)[C@H]([C@H](OC(=O)c3ccccc3)[C@]3(O)C[C@H](OC(=O)[C@H](O)[C@@H](NC(=O)c4ccccc4)c4ccccc4)C(C)=C1C3(C)C)[C@]1(OC(C)=O)CO[C@@H]1C[C@@H]2O [Taxol, reference compound] | – | – | – | – | – | – | – | – | CC50 at 48 h [5]: 1.53 ± 0.26 nM; CC50 at 48 h [6]: 1.29 ± 0.16 nM
